CCCCCCCCCCCCCCCCCCCCCCCCCCCCO
solubility (mole fraction) (in n-hexanol, 298.2 K): 0.000906
solubility (mole fraction) (in n-hexanol, 303.2 K): 0.00126
solubility (mole fraction) (in n-hexanol, 308.2 K): 0.00238
solubility (mole fraction) (in n-hexanol, 313.2 K): 0.00436
solubility (mole fraction) (in n-hexanol, 318.2 K): 0.00758
solubility (mole fraction) (in n-hexanol, 323.2 K): 0.0148
solubility (mole fraction) (in n-hexanol, 328.2 K): 0.0291
solubility (mole fraction) (in n-hexanol, 333.2 K): 0.0602
solubility (mole fraction) (in n-pentanol, 298.2 K): 0.000644
solubility (mole fraction) (in n-pentanol, 303.2 K): 0.00115
solubility (mole fraction) (in n-pentanol, 308.2 K): 0.00222
solubility (mole fraction) (in n-pentanol, 313.2 K): 0.00375
solubility (mole fraction) (in n-pentanol, 318.2 K): 0.00658
solubility (mole fraction) (in n-pentanol, 323.2 K): 0.013
solubility (mole fraction) (in n-pentanol, 328.2 K): 0.026
solubility (mole fraction) (in toluene, 298.2 K): 0.0014
solubility (mole fraction) (in toluene, 303.2 K): 0.00246
solubility (mole fraction) (in toluene, 308.2 K): 0.00402
solubility (mole fraction) (in toluene, 313.2 K): 0.00744
solubility (mole fraction) (in toluene, 318.2 K): 0.0137
solubility (mole fraction) (in toluene, 323.2 K): 0.0291
solubility (mole fraction) (in toluene, 328.2 K): 0.0588
